Laboratory results: ChEMBL document CHEMBL5653631, “A Potent and Selective ULK1 Inhibitor Suppresses Autophagy and Sensitizes Cancer Cells to Nutrient Stress” (iScience, 2018)

Tests used:
[1] = target: T1, Serine/threonine-protein kinase DCLK3 (Homo sapiens) (UniProt Q9C098); experiment: Inhibition of human recombinant DCAMKL3 at 500 nM related to control ULK1
T1 sequence (whole entry): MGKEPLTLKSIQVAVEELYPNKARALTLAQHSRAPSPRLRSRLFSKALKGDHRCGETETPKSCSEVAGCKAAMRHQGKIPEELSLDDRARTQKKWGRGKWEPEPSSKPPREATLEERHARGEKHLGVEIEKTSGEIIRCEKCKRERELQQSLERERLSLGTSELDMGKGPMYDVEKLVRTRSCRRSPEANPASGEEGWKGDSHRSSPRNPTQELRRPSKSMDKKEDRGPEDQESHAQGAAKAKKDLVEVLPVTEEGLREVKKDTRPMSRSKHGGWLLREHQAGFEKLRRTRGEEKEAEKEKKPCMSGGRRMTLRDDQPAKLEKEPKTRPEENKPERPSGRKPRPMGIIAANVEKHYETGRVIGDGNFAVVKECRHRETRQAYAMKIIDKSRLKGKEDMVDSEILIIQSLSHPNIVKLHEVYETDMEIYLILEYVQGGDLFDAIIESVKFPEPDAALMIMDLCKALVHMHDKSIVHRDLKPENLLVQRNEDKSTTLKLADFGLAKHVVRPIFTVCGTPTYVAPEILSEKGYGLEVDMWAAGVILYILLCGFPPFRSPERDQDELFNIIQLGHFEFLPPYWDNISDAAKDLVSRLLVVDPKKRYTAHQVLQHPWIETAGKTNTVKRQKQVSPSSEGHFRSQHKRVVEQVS

[2] = target: T2, Ephrin type-B receptor 1 (Homo sapiens) (UniProt P54762); experiment: Inhibition of human recombinant EphB1 at 15 nM related to control ULK1
T2 sequence (whole entry): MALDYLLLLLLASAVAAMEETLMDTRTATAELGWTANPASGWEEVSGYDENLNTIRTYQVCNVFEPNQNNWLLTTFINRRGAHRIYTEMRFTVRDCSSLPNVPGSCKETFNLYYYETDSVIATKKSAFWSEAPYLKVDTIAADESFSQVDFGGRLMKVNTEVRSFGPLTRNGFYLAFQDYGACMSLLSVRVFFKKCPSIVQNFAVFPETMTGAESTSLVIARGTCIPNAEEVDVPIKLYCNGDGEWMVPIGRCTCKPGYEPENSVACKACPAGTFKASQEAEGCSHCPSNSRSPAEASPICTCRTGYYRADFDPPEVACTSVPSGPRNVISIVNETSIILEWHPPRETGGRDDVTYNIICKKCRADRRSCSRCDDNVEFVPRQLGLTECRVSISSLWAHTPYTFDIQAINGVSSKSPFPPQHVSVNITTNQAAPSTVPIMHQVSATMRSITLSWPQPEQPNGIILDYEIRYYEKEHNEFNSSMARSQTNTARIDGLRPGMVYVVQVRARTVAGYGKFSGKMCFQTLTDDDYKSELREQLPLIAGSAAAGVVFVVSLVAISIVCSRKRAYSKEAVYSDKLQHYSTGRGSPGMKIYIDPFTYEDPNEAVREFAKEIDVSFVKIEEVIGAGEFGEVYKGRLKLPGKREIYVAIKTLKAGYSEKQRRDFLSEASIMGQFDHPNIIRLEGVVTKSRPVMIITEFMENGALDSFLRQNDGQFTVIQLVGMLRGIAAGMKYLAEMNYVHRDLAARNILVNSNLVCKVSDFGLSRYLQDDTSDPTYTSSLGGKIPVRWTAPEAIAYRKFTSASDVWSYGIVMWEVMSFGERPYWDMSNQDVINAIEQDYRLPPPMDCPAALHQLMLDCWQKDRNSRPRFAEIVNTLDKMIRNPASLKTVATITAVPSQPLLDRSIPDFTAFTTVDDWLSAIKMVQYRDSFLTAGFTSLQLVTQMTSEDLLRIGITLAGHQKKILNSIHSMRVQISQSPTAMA

[3] = target: Receptor-type tyrosine-protein kinase FLT3 (Homo sapiens) (UniProt P36888); experiment: Inhibition of human recombinant FLT3 at 15 nM in presence of ATP by radiometric assay relative to control
Chain of Receptor-type tyrosine-protein kinase FLT3 (Homo sapiens) (P36888 whole entry): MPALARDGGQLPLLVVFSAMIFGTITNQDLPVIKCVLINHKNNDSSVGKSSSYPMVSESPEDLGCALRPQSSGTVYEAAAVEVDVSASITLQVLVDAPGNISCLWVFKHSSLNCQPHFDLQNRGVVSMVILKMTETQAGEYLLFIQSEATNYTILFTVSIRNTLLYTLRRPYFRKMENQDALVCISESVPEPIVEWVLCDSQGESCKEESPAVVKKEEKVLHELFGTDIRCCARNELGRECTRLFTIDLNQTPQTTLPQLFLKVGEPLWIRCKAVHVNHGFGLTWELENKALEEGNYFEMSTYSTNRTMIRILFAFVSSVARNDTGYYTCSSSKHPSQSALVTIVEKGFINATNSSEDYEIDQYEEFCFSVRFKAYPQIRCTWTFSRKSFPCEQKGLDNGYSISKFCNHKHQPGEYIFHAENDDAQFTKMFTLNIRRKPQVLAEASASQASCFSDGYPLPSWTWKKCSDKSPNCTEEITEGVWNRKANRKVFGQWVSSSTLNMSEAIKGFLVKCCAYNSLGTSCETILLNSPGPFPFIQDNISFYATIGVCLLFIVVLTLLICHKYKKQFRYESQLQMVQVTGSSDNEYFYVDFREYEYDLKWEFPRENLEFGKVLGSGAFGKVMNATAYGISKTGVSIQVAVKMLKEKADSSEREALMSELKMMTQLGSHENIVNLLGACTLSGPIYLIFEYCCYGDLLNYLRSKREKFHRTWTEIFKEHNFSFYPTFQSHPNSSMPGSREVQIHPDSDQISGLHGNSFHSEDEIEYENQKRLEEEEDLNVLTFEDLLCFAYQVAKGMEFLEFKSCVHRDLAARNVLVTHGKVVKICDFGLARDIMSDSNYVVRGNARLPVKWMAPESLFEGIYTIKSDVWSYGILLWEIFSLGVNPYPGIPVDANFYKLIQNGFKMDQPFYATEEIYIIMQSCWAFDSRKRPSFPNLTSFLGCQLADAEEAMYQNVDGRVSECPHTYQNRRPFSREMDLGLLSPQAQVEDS

[4] = target: Glycogen synthase kinase-3 alpha (Homo sapiens) (UniProt P49840); experiment: Inhibition of human recombinant GSK3A at 15 nM related to control ULK1
Chain of Glycogen synthase kinase-3 alpha (Homo sapiens) (P49840 2-483 limits assumed): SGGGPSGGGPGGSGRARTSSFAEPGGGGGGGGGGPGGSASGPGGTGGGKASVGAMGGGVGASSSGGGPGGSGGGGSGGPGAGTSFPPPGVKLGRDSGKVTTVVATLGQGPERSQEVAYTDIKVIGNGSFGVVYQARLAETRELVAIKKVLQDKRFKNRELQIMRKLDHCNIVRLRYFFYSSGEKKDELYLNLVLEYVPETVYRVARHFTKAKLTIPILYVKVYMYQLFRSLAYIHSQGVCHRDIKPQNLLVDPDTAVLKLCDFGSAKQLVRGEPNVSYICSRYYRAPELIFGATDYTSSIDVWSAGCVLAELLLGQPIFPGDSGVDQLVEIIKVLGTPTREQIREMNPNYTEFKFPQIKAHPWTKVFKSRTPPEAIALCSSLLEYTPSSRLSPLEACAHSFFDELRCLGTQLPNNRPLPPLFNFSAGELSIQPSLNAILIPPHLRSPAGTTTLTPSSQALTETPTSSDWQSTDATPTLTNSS

[5] = target: Mitogen-activated protein kinase 14 (Homo sapiens) (UniProt Q16539); experiment: Inhibition of human recombinant p38alpha at 40 nM related to control ULK1
Chain of Mitogen-activated protein kinase 14 (Homo sapiens) (Q16539 whole entry): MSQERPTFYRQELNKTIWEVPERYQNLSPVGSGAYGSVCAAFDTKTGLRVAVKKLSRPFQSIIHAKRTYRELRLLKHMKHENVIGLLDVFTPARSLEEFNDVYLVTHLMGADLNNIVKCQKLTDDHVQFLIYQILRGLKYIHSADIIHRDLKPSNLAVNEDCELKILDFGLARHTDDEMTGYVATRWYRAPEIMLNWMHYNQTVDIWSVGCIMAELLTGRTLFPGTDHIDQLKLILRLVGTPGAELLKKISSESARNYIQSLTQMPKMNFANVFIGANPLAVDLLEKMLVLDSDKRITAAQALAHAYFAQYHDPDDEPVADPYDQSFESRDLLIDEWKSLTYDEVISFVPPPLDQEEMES

[6] = target: Serine/threonine-protein kinase SIK1 (Homo sapiens) (UniProt P57059); experiment: Inhibition of human recombinant SIK at 40 nM related to control ULK1
Chain of Serine/threonine-protein kinase SIK1 (Homo sapiens) (P57059 whole entry): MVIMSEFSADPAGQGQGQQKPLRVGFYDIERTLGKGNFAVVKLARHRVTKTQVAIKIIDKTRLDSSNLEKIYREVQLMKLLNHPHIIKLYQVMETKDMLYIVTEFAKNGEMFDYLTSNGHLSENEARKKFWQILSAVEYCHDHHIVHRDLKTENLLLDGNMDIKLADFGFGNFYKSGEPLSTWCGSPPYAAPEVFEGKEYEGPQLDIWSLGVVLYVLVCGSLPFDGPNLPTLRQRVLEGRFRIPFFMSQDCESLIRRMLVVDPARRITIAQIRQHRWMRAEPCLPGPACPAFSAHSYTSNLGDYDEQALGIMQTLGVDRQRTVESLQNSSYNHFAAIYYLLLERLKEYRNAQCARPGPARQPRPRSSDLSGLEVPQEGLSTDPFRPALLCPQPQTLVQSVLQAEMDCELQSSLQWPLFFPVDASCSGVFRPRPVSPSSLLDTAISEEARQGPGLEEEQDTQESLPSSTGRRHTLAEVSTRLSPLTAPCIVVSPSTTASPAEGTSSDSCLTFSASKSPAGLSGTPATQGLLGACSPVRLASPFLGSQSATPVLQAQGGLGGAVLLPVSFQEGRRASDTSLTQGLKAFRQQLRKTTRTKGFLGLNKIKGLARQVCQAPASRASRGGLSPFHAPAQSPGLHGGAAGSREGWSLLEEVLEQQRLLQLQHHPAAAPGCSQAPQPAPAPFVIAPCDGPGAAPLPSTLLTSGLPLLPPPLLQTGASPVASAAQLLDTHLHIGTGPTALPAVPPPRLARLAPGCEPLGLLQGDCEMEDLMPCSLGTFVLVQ

[7] = target: T3, Serine/threonine-protein kinase D3 (Homo sapiens) (UniProt O94806); experiment: Inhibition of human recombinant PKD3 at 40 nM in presence of ATP by radiometric assay relative to control
T3 sequence (whole entry): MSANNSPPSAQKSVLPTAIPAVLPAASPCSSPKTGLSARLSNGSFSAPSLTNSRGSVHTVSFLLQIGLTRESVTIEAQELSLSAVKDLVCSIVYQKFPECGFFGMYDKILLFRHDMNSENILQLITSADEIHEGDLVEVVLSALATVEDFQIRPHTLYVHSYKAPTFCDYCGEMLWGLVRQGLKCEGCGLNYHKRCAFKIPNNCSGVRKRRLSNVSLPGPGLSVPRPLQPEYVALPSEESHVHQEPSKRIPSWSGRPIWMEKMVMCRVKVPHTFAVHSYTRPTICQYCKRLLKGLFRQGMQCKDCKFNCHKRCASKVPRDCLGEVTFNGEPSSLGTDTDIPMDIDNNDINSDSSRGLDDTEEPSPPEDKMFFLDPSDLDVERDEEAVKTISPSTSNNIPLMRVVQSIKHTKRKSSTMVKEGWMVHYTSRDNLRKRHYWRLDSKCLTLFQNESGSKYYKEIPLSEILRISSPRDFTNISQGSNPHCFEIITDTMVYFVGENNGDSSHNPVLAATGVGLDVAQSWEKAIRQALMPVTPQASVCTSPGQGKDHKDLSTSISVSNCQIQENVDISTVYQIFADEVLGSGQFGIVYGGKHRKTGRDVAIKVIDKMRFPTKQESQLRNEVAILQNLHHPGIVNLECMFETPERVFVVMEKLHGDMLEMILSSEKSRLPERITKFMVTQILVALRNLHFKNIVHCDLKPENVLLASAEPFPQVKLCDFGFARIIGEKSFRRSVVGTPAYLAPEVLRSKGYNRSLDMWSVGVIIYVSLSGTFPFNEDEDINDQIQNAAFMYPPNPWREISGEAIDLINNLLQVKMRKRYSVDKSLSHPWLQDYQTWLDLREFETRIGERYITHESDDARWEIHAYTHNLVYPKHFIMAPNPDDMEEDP

[8] = target: Calcium/calmodulin-dependent protein kinase type 1G (Homo sapiens) (UniProt Q96NX5); experiment: Inhibition of human recombinant CaMK1g at 40 nM related to control ULK1
Chain of Calcium/calmodulin-dependent protein kinase type 1G (Homo sapiens) (Q96NX5 whole entry): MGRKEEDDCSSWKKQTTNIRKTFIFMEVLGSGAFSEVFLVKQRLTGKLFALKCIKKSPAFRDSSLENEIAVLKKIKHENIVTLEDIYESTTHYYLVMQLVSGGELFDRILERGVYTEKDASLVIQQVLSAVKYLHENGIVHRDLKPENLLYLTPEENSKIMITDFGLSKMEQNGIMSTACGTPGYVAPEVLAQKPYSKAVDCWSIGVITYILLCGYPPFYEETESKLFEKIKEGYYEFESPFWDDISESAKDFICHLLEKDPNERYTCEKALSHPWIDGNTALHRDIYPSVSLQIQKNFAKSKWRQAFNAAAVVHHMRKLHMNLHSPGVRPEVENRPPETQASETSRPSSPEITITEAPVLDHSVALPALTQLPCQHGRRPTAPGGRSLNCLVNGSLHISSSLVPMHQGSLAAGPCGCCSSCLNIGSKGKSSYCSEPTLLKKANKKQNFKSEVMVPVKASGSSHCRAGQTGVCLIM

A fold change (FC) [1] of 0 was found for `CNC(=O)c1ccccc1Oc1nc(Nc2cc(OC)c(OC)c(OC)c2)ncc1Br` in this work.

A fold change (FC) [2] of 0.14, an inhibition [3] of 68% and a fold change (FC) [4] of 0 were found for `CC(C)[C@H](NC(=O)c1cc(-c2cnn3cc(-c4ccc(OCCN5CCCCC5)cc4)cnc23)cs1)C(F)(F)F` in this work.

A fold change (FC) [5] of 0.01, a fold change (FC) [6] of 0.27 and an inhibition [7] of 7% were found for `O=C(N[C@@H](C1CC1)C(F)(F)F)c1cc(-c2cnn3cc(-c4ccc(F)cc4)cnc23)cs1` in this work. The fold change (FC) [8] was 0.
